Data: PubChem BioAssay AID1963851 (Molecular Pharmacology Branch, DTP, NCI, 2024)

System: 188146-221-R-J1-PDC complex spheroid viability
Assay: Anticancer human tumor 188146-221-R-J1-PDC patient-derived colon adenocarcinoma cell line growth inhibition [POLQ]
Details: for IC50: curve of first compound; for viability, T/C: stronger effect = lower value
In short: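 Three-cell-type spheroids modelling solid tumor plus stroma served as the readout system; POL inhibitors were tested individually and in combination, concentration ranges set by clinical Cmax where known.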

[1] = second compound 0.0316 µM, first compound 0.00316 µM
[2] = second compound 0.0316 µM, first compound 0.01 µM
[3] = second compound 0.0316 µM, first compound 0.0316 µM
[4] = second compound 0.0316 µM, first compound 0.1 µM
[5] = second compound 0.1 µM, first compound 0.00316 µM
[6] = second compound 0.1 µM, first compound 0.01 µM
[7] = second compound 0.1 µM, first compound 0.0316 µM
[8] = second compound 0.1 µM, first compound 0.1 µM
[9] = second compound 0.316 µM, first compound 0.00316 µM
[10] = second compound 0.316 µM, first compound 0.01 µM
[11] = second compound 0.316 µM, first compound 0.0316 µM
[12] = second compound 0.316 µM, first compound 0.1 µM
[13] = second compound 1 µM, first compound 0.00316 µM
[14] = second compound 1 µM, first compound 0.01 µM
[15] = second compound 1 µM, first compound 0.0316 µM
[16] = second compound 1 µM, first compound 0.1 µM
[17] = second compound 3.16 µM, first compound 0.00316 µM
[18] = second compound 3.16 µM, first compound 0.01 µM
[19] = second compound 3.16 µM, first compound 0.0316 µM
[20] = second compound 3.16 µM, first compound 0.1 µM
[21] = second compound 10 µM, first compound 0.00316 µM
[22] = second compound 10 µM, first compound 0.01 µM
[23] = second compound 10 µM, first compound 0.0316 µM
[24] = second compound 10 µM, first compound 0.1 µM
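Note: spheroids exposed to compounds for seven days.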
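Throughout, for viability, T/C: 100% = DMSO vehicle control viability.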

COc1cccc(OCCCN)c1-c1cc(Nc2cnc(C#N)cn2)n[nH]1 + COC1C(OC(N)=O)C(O)C(Oc2ccc3c(O)c(NC(=O)c4ccc(O)c(CC=C(C)C)c4)c(=O)oc3c2C)OC1(C)C
IC50 (second compound 0.0316 µM): 28.7 nM
IC50 (second compound 0.1 µM): 35 nM
IC50 (second compound 0.316 µM): 39.4 nM
IC50 (second compound 1 µM): 30.5 nM
IC50 (second compound 3.16 µM): 27.6 nM
IC50 (second compound 10 µM): 22.2 nM
viability, T/C [1]: 105%
viability, T/C [2]: 77.3%
viability, T/C [3]: 51.3%
viability, T/C [4]: 20.1%
viability, T/C (second compound 0.0316 µM, first compound 0.316 µM): 13%
viability, T/C (second compound 0.0316 µM, first compound 1 µM): 10.6%
viability, T/C [5]: 107%
viability, T/C [6]: 96.6%
viability, T/C [7]: 51.9%
viability, T/C [8]: 20.7%
viability, T/C (second compound 0.1 µM, first compound 0.316 µM): 12.7%
viability, T/C (second compound 0.1 µM, first compound 1 µM): 9.49%
viability, T/C [9]: 97%
viability, T/C [10]: 80.6%
viability, T/C [11]: 60.2%
viability, T/C [12]: 18%
viability, T/C (second compound 0.316 µM, first compound 0.316 µM): 10.6%
viability, T/C (second compound 0.316 µM, first compound 1 µM): 9.85%
viability, T/C [13]: 106%
viability, T/C [14]: 90.1%
viability, T/C [15]: 47.6%
viability, T/C [16]: 21%
viability, T/C (second compound 1 µM, first compound 0.316 µM): 12%
viability, T/C (second compound 1 µM, first compound 1 µM): 9.09%
viability, T/C [17]: 89.5%
viability, T/C [18]: 79.8%
viability, T/C [19]: 45.8%
viability, T/C [20]: 18.4%
viability, T/C (second compound 3.16 µM, first compound 0.316 µM): 12.5%
viability, T/C (second compound 3.16 µM, first compound 1 µM): 9.13%
viability, T/C [21]: 103%
viability, T/C [22]: 83.1%
viability, T/C [23]: 35.1%
viability, T/C [24]: 15.2%
viability, T/C (second compound 10 µM, first compound 0.316 µM): 11.4%
viability, T/C (second compound 10 µM, first compound 1 µM): 9.97%

Cn1ncnc1[C@H]1c2n[nH]c(=O)c3cc(F)cc(c23)N[C@@H]1c1ccc(F)cc1 + COC1C(OC(N)=O)C(O)C(Oc2ccc3c(O)c(NC(=O)c4ccc(O)c(CC=C(C)C)c4)c(=O)oc3c2C)OC1(C)C
IC50 (second compound 0.0316 µM): > 100 nM
IC50 (second compound 0.1 µM): > 100 nM
IC50 (second compound 0.316 µM): > 100 nM
IC50 (second compound 1 µM): > 100 nM
IC50 (second compound 3.16 µM): > 100 nM
IC50 (second compound 10 µM): > 100 nM
viability, T/C (second compound 0.0316 µM, first compound 0.000316 µM): 109%
viability, T/C (second compound 0.0316 µM, first compound 0.001 µM): 93.7%
viability, T/C [1]: 104%
viability, T/C [2]: 113%
viability, T/C [3]: 97.9%
viability, T/C [4]: 88.4%
viability, T/C (second compound 0.1 µM, first compound 0.000316 µM): 108%
viability, T/C (second compound 0.1 µM, first compound 0.001 µM): 108%
viability, T/C [5]: 108%
viability, T/C [6]: 101%
viability, T/C [7]: 99.5%
viability, T/C [8]: 86.8%
viability, T/C (second compound 0.316 µM, first compound 0.000316 µM): 114%
viability, T/C (second compound 0.316 µM, first compound 0.001 µM): 102%
viability, T/C [9]: 98.2%
viability, T/C [10]: 93.8%
viability, T/C [11]: 98.8%
viability, T/C [12]: 88.8%
viability, T/C (second compound 1 µM, first compound 0.000316 µM): 107%
viability, T/C (second compound 1 µM, first compound 0.001 µM): 113%
viability, T/C [13]: 108%
viability, T/C [14]: 107%
viability, T/C [15]: 98.2%
viability, T/C [16]: 101%
viability, T/C (second compound 3.16 µM, first compound 0.000316 µM): 108%
viability, T/C (second compound 3.16 µM, first compound 0.001 µM): 103%
viability, T/C [17]: 106%
viability, T/C [18]: 97.5%
viability, T/C [19]: 110%
viability, T/C [20]: 102%
viability, T/C (second compound 10 µM, first compound 0.000316 µM): 114%
viability, T/C (second compound 10 µM, first compound 0.001 µM): 104%
viability, T/C [21]: 111%
viability, T/C [22]: 104%
viability, T/C [23]: 103%
viability, T/C [24]: 105%
